Measured values: US12514883B2, “Compositions and methods for modulating lipid and steroid metabolism” (The Regents of the University of California, priority 2019, dated 2026)

Tests used:
T. sanguinis [1] = assay: [3H]5-HT uptake assay in T. sanguinis; format: cell-based, Turicibacter sanguinis; conditions: 30 min pre-treatment
T. sanguinis [2] = assay: APP+ uptake assay in T. sanguinis; format: cell-based, Turicibacter sanguinis; conditions: 200 uM pre-treatment for 30 min
Procedure: (§1) T. sanguinis and B. theta were cultured anaerobically as described above and subcultured for 15-17 h to reach the stationaryphase. Bacterial APP+ transport activity was measured according to the manufacturer's instructions using the Neurotransmitter Transporter Uptake Assay Kit (Molecular Devices). […] Then cells were treated with APP+ for 4 hours at 37° C. Intracellular fluorescence signal was measured at 520 nm using a multimodal plate reader (Biotek Synergy H1). Bacterial suspensions were mounted on slides and imaged using an epifluorescence microscope (EVOS). Images of B. theta were brightened by 90% to resolve fluorescence signal.

[3] = Fecal 5-HT levels after 5-HT in drinking water (ELISA); format: in vivo, mice
Procedure: (§2) Water was supplemented with 5-HT (Sigma Aldrich) at 1.5 mg/ml provided ad libitum to mice for 2 weeks. The amount of water consumed and mouse weight were measured on days 3, 7, 10 and 14 of treatment. Mice were sacrificed one day after treatment for 5-HT assays and fecal 16S rDNA profiling was conducted as described below.
Blood samples were collected by cardiac puncture and spun through SST vacutainers (Becton Dickinson) for serum separation. […] Serotonin levels were detected by ELISA according to the manufacturer's instructions (Eagle Biosciences). Readings from tissue samples were normalized to total protein content as detected by BCA assay or the 660 nm Protein Assay (Thermo Pierce).
SPF mice were treated with ampicillin, gentamicin, neomycin and vancomycin (AGNV) in their drinking water at 0.5 g/L for 4 days. […] 5-HT drinking water concentration was determined by calculating the same molar concentration as Flx in drinking water. […] Three days after the final gavage, mice were euthanized by CO2 and the small and large intestines were collected for fluorescence in situ hybridization (FISH) as described below and lumenal contents from the small and large intestines were harvested for 16S rDNA sequencing. […] Tissues were collected and analysed 3 d after the final gavage. […]

[4] = test system: gut microbiota (Clostridia); assay: Fecal 16S rDNA microbiota profiling after oral 5-HT supplementation; format: in vivo, mice
Procedure: as §2
(§3) Bacterial genomic DNA was extracted from mouse fecal samples using the MoBio PowerSoil Kit. The library was generated according to methods adapted from Capraso J. G., et al., PNAS 108 Suppl 1, 4516-4522 (2011). The V4 regions of the 16S rDNA gene were PCR amplified using individually barcoded universal primers and 30 ng of the extracted genomic DNA. The PCR reaction was set up in triplicate, and the PCR product was purified using the Qiaquick PCR purification kit (Qiagen). In total, 250 ng of purified PCR product from each sample was pooled and sequenced by Laragen, Inc. using the Illumina MiSeq platform and 2×250 bp reagent kit for paired-end sequencing. Operational taxonomic units (OTUs) were chosen by open reference OTU picking based on 97% sequence similarity to the Greengenes 13_5 database. Taxonomy assignment and rarefaction were performed using QIIME1.8.0. Metagenomes were inferred from closed reference OTU tables using PICRUSt.

[5] = test system: Turicibacter sanguinis MOL361; assay: T. sanguinis growth curve and viability; format: cell-based
Procedure: Scale bars: 10 μm. […] Scale bar denotes 100 um.
Cell density of T. sanguinis at 6, 12, 18, 30, 36, 45 and 48 hours of growth in the presence of 200 uM 5-HT, Flx or both 5-HT and Flx. Treatments were added at the start of culture (e.g. t=0 h).
(§4) Turicibacter sanguinis MOL361 (DSM-14220, DSMZ) was grown in Schaedler's Broth (BD Biosciences) in an anaerobic chamber of 10% carbon dioxide, 5% hydrogen, and balanced nitrogen. Bacteroides thetaiotaomicron (ATCC 29148) was grown in Brain Heart Infusion media (BD Biosciences) supplemented with 5 ug/ml hemin (Frontier Scientific) and 0.5 ug/ml vitamin K1 (Sigma Aldrich) under the same anaerobic conditions. Mouse- and human-derived spore-forming bacterial consortia were isolated by chloroform treatment and propagated in mice.

CUW_0748 [6] = assay: APP+ uptake in B. thetaiotaomicron expressing CUW_0748; format: cell-based
Procedure: as §1

CUW_0748 [7] = assay: [3H]5-HT uptake in B. thetaiotaomicron expressing CUW_0748; format: cell-based
Procedure: The vector was transformed into E. coli with selection using 100 ug/ml ampicillin and conjugated into B. theta using the E. coli helper plasmid RK231 with 50 ug/ml kanamycin selection. E. coli was killed using 200 ug/ml gentamicin and transconjugant strains were selected using 5 ug/ml erythromycin. Successful conjugation and gene expression were confirmed by PCR and qPCR for CUW_0748 in DNA and RNA extracted from B. theta clones. T. sanguinis or B. theta were cultured anaerobically as described above and subcultured for 15-17 h to reach the stationary phase. […] For T. sanguinis, all uptake reactions were performed at room temperature. For B. theta, uptake reactions were performed at either room temperature or 37° C. Uptake reactions were terminated by washing in ice cold Kreb-Ringer's buffer. Washed T. sanguinis was trapped through 0.45 um PVDF filters on MultiScreenHTS plates connected to a vacuum manifold (EMD Millipore). For B. theta, washed cells were either trapped through 0.45-μm PVDF filters or lysed by incubating in TE buffer plus triton and lysozyme. Extracted filters or lysed cells were incubated in 4 ml Filter Count scintillation fluid (Perkin Elmer) for 1 hour at room temp, and radioactivity was measured using a liquid scintillation counter (Beckman LS6500).

T. sanguinis [8] = assay: Bacterial transcriptomic analysis of T. sanguinis; format: cell-based, Turicibacter sanguinis
Procedure: T. sanguinis was cultured anaerobically as described above and subcultured to mid-log-phase. […] Bacteria were washed with PBS and lysed in TE buffer containing 1.2% Triton X-100 and 15 mg/ml lysozyme. RNA was extracted using the RNAeasy Mini kit with on-column genomic DNA-digest (Qiagen). cDNA synthesis was performed using the qScript cDNA synthesis kit (Quantabio). RNA quality of RIN>8.0 was confirmed using the 4200 Tapestation system (Agilent). rRNA were removed with the Ribo-Zero Bacterial kit (Illumina), RNA was prepared using the TruSeq Stranded RNA kit (Illumina) and 2×75 bp paired end reads were sequenced using the Illumina HiSeq platform by the UCLA Neuroscience Genomics Core. The bacterial RNAseq analysis package Rockhopper was used for quality filtering, mapping against the T. sanguinis PC909 genome and differential expression analysis. […] Heatmaps containing differentially expressed genes with adjusted p<0.05 and coefficient of variation (standard deviation/mean)<3 were generated using the pheatmap package for R. GO term enrichment analysis of differentially expressed genes with adjusted p<0.05 was conducted using DAVID. Functional protein networks were generated with differentially expressed genes with adjusted p<0.05 using STRING. Bacterial FM 4-64 staining and imaging. […] Cells were washed with PBS, fixed in 4% paraformaldehyde, and stained with FM4-64 (5 μg ml−1) and 4′,6-diamidino-2-phenylindole (DAPI; 0.2 μg ml−1) according to the manufacturer's instructions. Cells were wet-mounted on glass slides and cover slips. Images were acquired at 63× using the Zeiss LSM 780 confocal microscope. Images were analysed using Fiji software51 by a researcher blinded to the experimental group. FM 4-64 puncta were counted manually based on circularity and fluorescence intensity. Counts were normalized to cell area, as determined by thresholding of DAPI staining.

T. sanguinis MOL361 [9] = assay: Turicibacter colonization of antibiotic-treated mice (FISH, 16S rDNA); format: in vivo
T. sanguinis MOL361 [10] = assay: 5-HT levels in culture supernatant of T. sanguinis grown in Schaedler broth; format: cell-based, Turicibacter sanguinis; conditions: 200 uM fluoxetine, 0-36 hours of growth
Procedure: as §4

T. sanguinis [11] = assay: [3H]NE uptake assay in T. sanguinis; format: cell-based, Turicibacter sanguinis; conditions: 30 min pre-treatment, 200 uM fluoxetine
Procedure: T. sanguinis or B. theta were cultured anaerobically as described above and subcultured for 15-17 h to reach the stationary phase. […] Cells were then incubated with 1 μM tritiated 5-HT (plus 0-500 μM unlabelled 5-HT for dose-dependent assays), NE or Trp (PerkinElmer). For T. sanguinis, all uptake reactions were performed at room temperature. For B. theta, uptake reactions were performed at either room temperature or 37° C. Uptake reactions were terminated by washing in ice cold Kreb-Ringer's buffer. Washed T. sanguinis was trapped through 0.45 um PVDF filters on MultiScreenHTS plates connected to a vacuum manifold (EMD Millipore). For B. theta, washed cells were either trapped through 0.45-μm PVDF filters or lysed by incubating in TE buffer plus triton and lysozyme. Extracted filters or lysed cells were incubated in 4 ml Filter Count scintillation fluid (Perkin Elmer) for 1 hour at room temp, and radioactivity was measured using a liquid scintillation counter (Beckman LS6500).

fecal microbiota = assay: Fluoxetine treatment of SPF mice, fecal 16S rDNA sequencing; format: in vivo
Procedure: as §3
Fecal samples were harvested on day 0, 1, 4, 7 or 14 of treatment as indicated in figure legends and processed for 16S rDNA sequencing as described above.

[12] = Lipid clinical chemistry analysis of serum; format: in vivo; conditions: antibiotic-treated mice gavaged with T. sanguinis pretreated with 200 μM 5-HT+Flx
Excerpt: Serum samples were collected from SPF, germfree, Turicibacter-monocolonized or Turicibacter-enriched mice and submitted to Charles River Clinical Pathology for analysis of the lipid species, including total cholesterol, free fatty acids, high-density lipoprotein, low-density lipoprotein and total triglycerides.

[13] = SPF mice gavaged with fluoxetine

For COc1cc2c(cc1OC)C1CC(=O)C(CC(C)C)CN1CC2 (centres unmarked) [tetrabenazine], which “effect on [3H]5-HT uptake by T. sanguinis” value (T. sanguinis [1]) is on record?
The value was “not observed”.

Which “effect on APP+ uptake (import) by T. sanguinis” value (T. sanguinis [2]) does the source give for NC[C@H](O)c1ccc(O)c(O)c1 [norepinephrine] here?
The value was “modest, but not statistically significant, effect”.

What does the source list for NCCc1c[nH]c2ccc(O)cc12 [5-HT, 5-hydroxytryptamine]?
increase of fecal 5-HT levels relative to vehicle-treated controls ([3]; SPF mice, 1.5 mg/ml 5-HT in the drinking water for 2 weeks): 642 fold; elevation of fecal 5-HT levels over vehicle ([3]; antibiotic-treated mice, 5-HT 24 μg/ml in drinking water): approximately 6 fold; combined relative abundance of Clostridiales, Clostridiaceae, Ruminococcus and Ruminococcaceae (mean±S.E.M.) ([4]; 5-HT-supplemented mice, fecal microbiota): 86.2±5.8%; increase of combined relative abundance of Clostridiales, Clostridiaceae, Ruminococcus and Ruminococcaceae ([4]; SPF mice, 1.5 mg/ml 5-HT in drinking water 2 weeks, vs SPF mice): 8.4 fold; effect on species of Clostridia in fecal microbiota ([4]; oral 5-HT supplementation, SPF mice): substantially enriched; T. sanguinis survival/viability after short-term (acute) exposure ([5]; 4 h exposure, 200 μM): not affected; effect on APP+ uptake (import) by T. sanguinis (T. sanguinis [2]): partially decreased; effect on APP+ uptake conferred by CUW_0748 (CUW_0748 [6]): inhibited; effect on 1 μM [3H]5-HT uptake conferred by CUW_0748 (CUW_0748 [7]): inhibited; effect on T. sanguinis gene expression pathways vs vehicle (T. sanguinis [8]; 200 uM 5-HT, 4 hr): downregulated the expression of genes that clustered into pathways for cell differentiation, morphogenesis and sporulation; number of bacterial genes with significantly altered expression (T. sanguinis [8]; 4 hr exposure, 200 uM, vs vehicle): 71 genes; differentially expressed genes (q<0.05) downregulated relative to vehicle (T. sanguinis [8]; T. sanguinis treated with 5-HT): 54 genes; T. sanguinis levels/colonization in the small intestine (T. sanguinis MOL361 [9]; antibiotic-treated SPF mice, bacterial pre-treatment plus same treatment in drinking water): detectable T. sanguinis colonization; T. sanguinis competitive colonization, bacterial pre-treatment only (T. sanguinis MOL361 [9]; antibiotic-treated mice, no supplementation in drinking water): promoted its competitive colonization

For CNCCC(Oc1ccc(C(F)(F)F)cc1)c1ccccc1 (centres unmarked) [fluoxetine], which “effect on decrease of 5-HT levels in the media over time” value (T. sanguinis MOL361 [10]) is on record?
Its value is “prevented”.

And the “effect on T. sanguinis growth over long-term culture” value ([5]; 200 uM, Schaedler broth, up to 48 hours)?
The value was “cytostatic effects”.

And the “effect on APP+ uptake (import) by T. sanguinis” value (T. sanguinis [2])?
Its value is “partially decreased”.

And the “effect on bacterial uptake of norepinephrine ([3H]NE)” value (T. sanguinis [11])?
The value was “no effect”.

And the “change in T. sanguinis gene expression in the absence of 5-HT” value (T. sanguinis [8]; fluoxetine alone)?
Its value is “little change”.

What about the “effect on T. sanguinis gene expression compared with 5-HT-treated controls” value (T. sanguinis [8]; fluoxetine with 5-HT, 4 hr) of the same compound?
Its value is “upregulated the expression of genes encoding proteins relevant to efflux transporters, ABC transporters and sporulation”.

And the “Turicibacter in fecal microbiota” value (fecal microbiota; SPF mice gavaged with 10 mg/kg fluoxetine)?
Its value is “decreased”.

And the “Clostridiaceae in fecal microbiota” value (fecal microbiota; [13])?
The value was “decreased”.

What about the “bacterial alpha diversity of fecal microbiota” value (fecal microbiota; [13]) of the same compound?
The value was “no significant differences”.

What about the “serum triglyceride levels compared with mice colonized with vehicle-treated T. sanguinis” value [12] of the same compound?
The value was “increased”.
